The values below come from patent US12226386B2, “Compositions and methods for treating biofilms” (The Regents of the University of California, priority 2018, dated 2025).

For experiment [1], the system named is bacterial biofilms (MRSA). In words: biofilm assays (sustained inhibition and/or disruption), bacterial. Format: cell-based, Staphylococcus aureus. The conditions noted are these: Tables 4 and 5. The procedure:
Other amino acids in the blood of animals could combat bacterial and fungal biofilm and therefore may be useful in treating these bacterial and fungal infections that would lie on the external surfaces of infected animals such as humans and could also be used to combat these pathogens on instruments and surfaces that need to be treated. Two types of biofilm assays were performed: a sustained inhibition assay and a disruption assay. The sustained inhibition assay assessed the compound's ability to prevent biofilm development throughout all stages of biofilm formation, while the disruption assay assessed the compound's ability to break up an existing mature biofilm.
For fungal biofilm assays, all solutions were prepared in RPMI 1640 medium. All bacterial biofilm solutions were prepared in Tryptic Soy Broth (TSB), supplemented with 1% glucose (henceforth referred to as TSB-G). All subsequent procedures were performed in a manner that maintained sterility. A solution of each amino acid to be tested was prepared in weight to volume concentrations ranging from 0.1-5.0%. Amino acids were also tested in combinations. Compound solutions were homogenized with gentle agitation in the dark (4° C., 24 hours) before use.
Bacterial strains were streaked on Blood Agar plates (5% sheep blood in Tryptic Soy Agar) and incubated at 37° C. for 24 hours. A single colony from each strain to be tested was inoculated in a TSB broth and grown for 12 hours, at 37° C. shaking at 225 rpm. For the bacterial biofilm inhibition assays, 1 μL of saturated overnight cell culture was added to either 80 μL of TSB-G, or TSB-G supplemented with the amino acid compound solution to be tested, in a 384-well plate. The cells were allowed to adhere to the plate for 60 minutes at 37° C. without shaking. The media was carefully aspirated and 80 μL of TSB-G, or TSB-G supplemented with the amino acid compound solution was added to the plate. The plate was further incubated for 24 hours at 37° C. without shaking. Media was carefully aspirated and the biofilm was measured by optical density at 600 nm. Eight or twelve replicates were performed for each tested condition and the reported values are normalized to the control (TSB-G media only). For the bacterial biofilm disruption assays, 80 μL of TSB-G was added to the plate, along with 1 μL of overnight cell culture. The cells were allowed to adhere to the plate for 60 minutes at 37° C. with no shaking. The media was carefully aspirated and 80 μL of TSB-G was added to the plate. The plate was further incubated for 24 hours at 37° C. with no shaking. Media was carefully aspirated from the mature biofilm and 80 μL of TSB-G, or TSB-G supplemented with the amino acid to be tested, was gently added to the plate. The plate was further incubated for 24 hours at 37° C. without shaking. Media was aspirated and the biofilm was measured by optical density at 600 nm. Twelve replicates were performed for each tested condition and the reported values are normalized to the control (TSB-G media only).

For experiment [2], the system named is fungal biofilms (C. albicans). Put plainly: biofilm assays (sustained inhibition and/or disruption), fungal. The class given is cell-based, Candida albicans. The following applies: Tables 4 and 5. As for the experimental part: Other amino acids in the blood of animals could combat bacterial and fungal biofilm and therefore may be useful in treating these bacterial and fungal infections that would lie on the external surfaces of infected animals such as humans and could also be used to combat these pathogens on instruments and surfaces that need to be treated. Two types of biofilm assays were performed: a sustained inhibition assay and a disruption assay. The sustained inhibition assay assessed the compound's ability to prevent biofilm development throughout all stages of biofilm formation, while the disruption assay assessed the compound's ability to break up an existing mature biofilm. For fungal biofilm assays, all solutions were prepared in RPMI 1640 medium. All bacterial biofilm solutions were prepared in Tryptic Soy Broth (TSB), supplemented with 1% glucose (henceforth referred to as TSB-G). All subsequent procedures were performed in a manner that maintained sterility. […] Amino acids were also tested in combinations. Compound solutions were homogenized with gentle agitation in the dark (4° C., 24 hours) before use. Fungal strains were streaked on Yeast Peptone Dextrose (YPD) agar plates and incubated at 30° C. for 48 hours. A single colony from each strain to be tested was inoculated into YPD broth and grown for 12 hours, at 30° C., shaking at 225 rpm. For the fungal biofilm inhibition assay, 1 μl of saturated overnight cell culture was added to either 80 μL of RPMI-1640 or RPMI-1640 supplemented with the amino acid compound solution to be tested, in a 384-well plate. The cells were allowed to adhere to the plate for 90 minutes at 37° C. shaking at 350 rpm. Loosely bound cells were washed once with phosphate buffered saline (PBS) and 80 μl of RPMI-1640, or RPMI-1640 supplemented with the amino acid compound solution was added to the plate. The plate was further incubated for 24 hours at 37° C. shaking at 350 rpm. Media was carefully aspirated and the biofilm was measured by optical density at 600 nm. Twelve replicates were performed for each tested condition and the reported values are normalized to the control (RPMI-1640 media only). For the fungal biofilm disruption assays, 80 μL of RPMI-1640 was added to the plate, along with 1 μL of overnight cell culture. The cells were allowed to adhere to the plate for 90 minutes at 37° C. shaking at 350 rpm. Loosely bound cells were washed once with PBS and 80 μL of RPMI-1640 was added to the plate. The plate was further incubated for 24 hours at 37° C. shaking at 350 rpm. Media was carefully aspirated from the mature biofilm and 80 μL of RPMI-1640, or RPMI-1640 supplemented with the amino acid compound solution to be tested, was gently added to the plate. The plate was further incubated for 24 hours at 37° C. shaking at 350 rpm. Media was carefully aspirated and the biofilm was measured by optical density at 600 nm. Twelve replicates were performed for each tested condition and the reported values are normalized to the control (RPMI-1640 media only).

The structures appear in SMILES notation.

Consider `N[C@@H](CCC(=O)O)C(=O)O` [Glutamic Acid, L-glutamic acid], for which the “effect on MRSA biofilms in inhibition and disruption assays” value in experiment [1] is “both inhibited and disrupted”. The “effect on C. albicans biofilms in inhibition and disruption assays” value in experiment [2] was “both inhibited and disrupted”.
Regarding `N[C@@H](CC(=O)O)C(=O)O` [Aspartic Acid, L-aspartic acid], the “effect on MRSA biofilms in inhibition and disruption assays” value in experiment [1] is “both inhibited and disrupted”. Besides, the “effect on C. albicans biofilms in inhibition and disruption assays” value in experiment [2] is “both inhibited and disrupted”.
For `N[C@@H](CS)C(=O)O` [Cysteine, L-cysteine], in experiment [1], the “effect on MRSA biofilms in inhibition and disruption assays” value was “both inhibited and disrupted”. In experiment [2], the “effect on C. albicans biofilms in inhibition and disruption assays” value is “both inhibited and disrupted”.
